According to PMC11956013, “Structure–Activity Relationships and Evaluation of 2-(Heteroaryl-cycloalkyl)-1H-indoles as Tauopathy Positron Emission Tomography Radiotracers” (Journal of Medicinal Chemistry, 2025):

How the values were obtained:
tyrosine hydroxylase = molecular target: T1, tyrosine hydroxylase (Rattus norvegicus, UniProt P04177); assay: Eurofins panel: tyrosine hydroxylase; type: biochemical; details: compound concentration 1.0E-05 M
T1 construct: purchased Eurofins (CNS SafetyScreen panel, contract assay)
T1 sequence (P04177 whole entry): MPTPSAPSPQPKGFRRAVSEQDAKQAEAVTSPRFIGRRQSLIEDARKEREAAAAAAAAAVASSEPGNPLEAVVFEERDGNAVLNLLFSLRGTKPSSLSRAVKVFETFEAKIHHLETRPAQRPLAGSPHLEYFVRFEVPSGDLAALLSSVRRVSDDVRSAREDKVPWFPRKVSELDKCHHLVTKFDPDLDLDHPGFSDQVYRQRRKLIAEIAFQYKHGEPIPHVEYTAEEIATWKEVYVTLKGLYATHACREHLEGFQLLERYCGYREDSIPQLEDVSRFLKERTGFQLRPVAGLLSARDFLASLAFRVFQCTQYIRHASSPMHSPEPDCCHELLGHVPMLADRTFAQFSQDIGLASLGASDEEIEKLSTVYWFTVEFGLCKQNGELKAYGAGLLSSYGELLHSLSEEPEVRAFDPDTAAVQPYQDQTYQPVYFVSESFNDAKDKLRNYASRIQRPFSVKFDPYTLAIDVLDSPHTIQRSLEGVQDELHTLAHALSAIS

AMPA = assay: Eurofins panel: AMPA (agonist radioligand); type: binding; details: 1.0E-05 M; AMPA (agonist radioligand)
[1] = system: Ca2+ channel (L, verapamil site) (phenylalkylamine); assay: Eurofins panel: Ca2+ channel (L, verapamil site) (phenylalkylamine) (antagonist radioligand); type: binding; details: 1.0E-05 M
cathepsin L (h) = molecular target: T2, cathepsin L (h) (Homo sapiens, UniProt P07711); assay: Eurofins panel: cathepsin L (h) enzymatic activity; type: biochemical; details: 1.0E-05 M; cathepsin L (h)
T2 construct: Eurofins (panel run by the vendor)
T2 sequence (P07711 114-333): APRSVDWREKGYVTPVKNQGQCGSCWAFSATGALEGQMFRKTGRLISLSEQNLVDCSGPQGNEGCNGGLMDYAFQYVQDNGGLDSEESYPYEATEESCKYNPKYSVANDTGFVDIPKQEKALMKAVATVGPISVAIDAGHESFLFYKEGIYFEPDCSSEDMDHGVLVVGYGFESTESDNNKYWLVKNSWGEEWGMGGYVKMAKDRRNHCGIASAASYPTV

5-HT7 (h) = 5-HT7 (h) (Homo sapiens, UniProt P34969); details: 1.0E-05 M; 5-HT7 (h) (agonist radioligand)
A1 (h) = A1 (h) (Homo sapiens, UniProt P30542); details: 1.0E-05 M; A1 (h) (antagonist radioligand)
Chain of A1 (h) (P30542 whole entry): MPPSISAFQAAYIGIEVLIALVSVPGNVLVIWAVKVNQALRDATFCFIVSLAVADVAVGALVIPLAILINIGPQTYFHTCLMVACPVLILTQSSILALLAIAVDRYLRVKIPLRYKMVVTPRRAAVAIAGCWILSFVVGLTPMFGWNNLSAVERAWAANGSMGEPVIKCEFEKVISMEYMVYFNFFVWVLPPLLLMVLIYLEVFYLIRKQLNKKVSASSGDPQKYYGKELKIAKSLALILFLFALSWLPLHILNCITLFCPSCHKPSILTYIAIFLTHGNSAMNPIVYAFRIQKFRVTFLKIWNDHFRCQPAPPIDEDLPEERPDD

A2A (h) = A2A (h) (Homo sapiens, UniProt P29274); details: 1.0E-05 M; A2A (h) (agonist radioligand)
Chain of A2A (h) (P29274 whole entry): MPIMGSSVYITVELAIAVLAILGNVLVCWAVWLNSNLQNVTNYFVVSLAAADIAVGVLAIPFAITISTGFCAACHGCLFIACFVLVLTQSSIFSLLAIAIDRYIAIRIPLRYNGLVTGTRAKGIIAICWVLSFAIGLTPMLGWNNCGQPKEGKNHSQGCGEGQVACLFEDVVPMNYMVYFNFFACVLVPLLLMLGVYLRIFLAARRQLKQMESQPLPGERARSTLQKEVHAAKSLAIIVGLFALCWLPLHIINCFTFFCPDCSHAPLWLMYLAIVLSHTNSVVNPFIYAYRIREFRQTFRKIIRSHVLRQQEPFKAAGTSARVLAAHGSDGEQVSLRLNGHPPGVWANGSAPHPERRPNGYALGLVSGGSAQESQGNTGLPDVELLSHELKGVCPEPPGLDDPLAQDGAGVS

alpha1B (h) = alpha1B (h) (Homo sapiens, UniProt P35368); details: 1.0E-05 M; alpha1B (h) (antagonist radioligand)
TNF-alpha (h) = details: compound concentration 1.0E-05 M
alpha2A (h) = alpha2A (h) (Homo sapiens, UniProt P08913); details: 1.0E-05 M; alpha2A (h) (antagonist radioligand)
Chain of alpha2A (h) (P08913 whole entry): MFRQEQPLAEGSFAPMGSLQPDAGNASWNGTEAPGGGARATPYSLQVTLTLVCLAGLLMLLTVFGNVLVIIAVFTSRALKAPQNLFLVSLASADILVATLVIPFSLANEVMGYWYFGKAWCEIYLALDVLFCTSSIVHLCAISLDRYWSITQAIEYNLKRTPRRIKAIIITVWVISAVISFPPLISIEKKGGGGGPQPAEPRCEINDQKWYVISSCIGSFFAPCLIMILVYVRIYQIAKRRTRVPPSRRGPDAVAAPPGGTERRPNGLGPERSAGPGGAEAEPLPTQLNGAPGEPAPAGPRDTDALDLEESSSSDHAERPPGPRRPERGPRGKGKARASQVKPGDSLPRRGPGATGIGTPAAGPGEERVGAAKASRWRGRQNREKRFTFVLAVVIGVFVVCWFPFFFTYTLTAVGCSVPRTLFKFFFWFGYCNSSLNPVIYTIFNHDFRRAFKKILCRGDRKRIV

Y1 (h) = Y1 (h) (Homo sapiens, UniProt P25929); details: compound concentration 1.0E-05 M
Chain of Y1 (h) (P25929 whole entry): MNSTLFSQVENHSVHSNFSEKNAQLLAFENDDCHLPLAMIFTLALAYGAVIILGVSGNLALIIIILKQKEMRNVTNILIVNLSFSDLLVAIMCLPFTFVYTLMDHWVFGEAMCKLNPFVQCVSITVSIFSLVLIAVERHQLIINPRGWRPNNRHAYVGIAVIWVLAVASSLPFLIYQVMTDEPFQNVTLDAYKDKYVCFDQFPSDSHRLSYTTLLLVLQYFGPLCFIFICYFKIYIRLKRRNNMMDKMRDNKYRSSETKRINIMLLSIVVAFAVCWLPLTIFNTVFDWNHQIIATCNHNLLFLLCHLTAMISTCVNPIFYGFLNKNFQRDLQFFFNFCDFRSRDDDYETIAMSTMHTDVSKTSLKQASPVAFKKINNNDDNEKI

[2] = molecular target: carbonic anhydrase II (h) (Homo sapiens, UniProt P00918); details: 1.0E-05 M
CYP1A2 = CYP1A2 (Homo sapiens, UniProt P05177); assay: in vitro; details: human liver microsomes, probe tacrine
CYP2D6 = CYP2D6 (Homo sapiens, UniProt P10635); assay: in vitro; details: human liver microsomes, probe dextromethorphan
Chain of CYP2D6 (P10635 whole entry): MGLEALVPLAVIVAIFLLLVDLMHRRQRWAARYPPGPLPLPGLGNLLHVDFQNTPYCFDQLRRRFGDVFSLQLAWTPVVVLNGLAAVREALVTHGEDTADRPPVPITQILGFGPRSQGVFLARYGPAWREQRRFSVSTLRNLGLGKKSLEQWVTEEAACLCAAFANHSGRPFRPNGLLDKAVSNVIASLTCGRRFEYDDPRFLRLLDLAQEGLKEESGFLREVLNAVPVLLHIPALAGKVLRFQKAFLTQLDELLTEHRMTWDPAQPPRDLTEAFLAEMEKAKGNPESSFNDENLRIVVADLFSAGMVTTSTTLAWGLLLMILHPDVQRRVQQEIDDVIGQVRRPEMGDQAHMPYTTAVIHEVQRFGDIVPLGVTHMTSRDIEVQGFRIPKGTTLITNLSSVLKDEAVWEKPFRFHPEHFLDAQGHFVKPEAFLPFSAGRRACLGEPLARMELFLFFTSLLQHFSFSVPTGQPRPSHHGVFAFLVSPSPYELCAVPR

CYP3A = CYP3A (Homo sapiens, UniProt P08684); assay: in vitro; details: human liver microsomes, probe midazolam
CCK1 (CCKA) (h) = CCK1 (CCKA) (h) (Homo sapiens, UniProt P32238); assay: biochemical
CGRP (h) = CGRP (h) (Homo sapiens, UniProt O60894+Q16602); assay: biochemical
D1 (h) = D1 (h) (Homo sapiens, UniProt P21728); assay: biochemical
Chain of D1 (h) (P21728 whole entry): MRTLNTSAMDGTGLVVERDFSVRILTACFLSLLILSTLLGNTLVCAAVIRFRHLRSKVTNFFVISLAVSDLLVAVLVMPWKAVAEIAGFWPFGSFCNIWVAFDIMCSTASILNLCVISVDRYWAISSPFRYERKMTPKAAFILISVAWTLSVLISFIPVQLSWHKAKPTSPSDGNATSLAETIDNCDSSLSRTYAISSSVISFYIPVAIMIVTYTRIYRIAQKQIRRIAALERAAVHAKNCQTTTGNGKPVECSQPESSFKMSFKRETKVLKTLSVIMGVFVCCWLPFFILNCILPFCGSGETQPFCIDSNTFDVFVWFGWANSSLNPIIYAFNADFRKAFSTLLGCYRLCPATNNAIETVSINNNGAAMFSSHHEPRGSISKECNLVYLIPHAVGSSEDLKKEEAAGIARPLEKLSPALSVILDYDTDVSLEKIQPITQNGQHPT

H1 (h) = H1 (h) (Homo sapiens, UniProt P35367); assay: biochemical
IRK (h) (InsR) = IRK (h) (InsR) (Homo sapiens, UniProt P06213); assay: biochemical
M2 (h) = M2 (h) (Homo sapiens, UniProt P08172); assay: biochemical
M3 (h) = M3 (h) (Homo sapiens, UniProt P20309); assay: biochemical
Chain of M3 (h) (P20309 whole entry): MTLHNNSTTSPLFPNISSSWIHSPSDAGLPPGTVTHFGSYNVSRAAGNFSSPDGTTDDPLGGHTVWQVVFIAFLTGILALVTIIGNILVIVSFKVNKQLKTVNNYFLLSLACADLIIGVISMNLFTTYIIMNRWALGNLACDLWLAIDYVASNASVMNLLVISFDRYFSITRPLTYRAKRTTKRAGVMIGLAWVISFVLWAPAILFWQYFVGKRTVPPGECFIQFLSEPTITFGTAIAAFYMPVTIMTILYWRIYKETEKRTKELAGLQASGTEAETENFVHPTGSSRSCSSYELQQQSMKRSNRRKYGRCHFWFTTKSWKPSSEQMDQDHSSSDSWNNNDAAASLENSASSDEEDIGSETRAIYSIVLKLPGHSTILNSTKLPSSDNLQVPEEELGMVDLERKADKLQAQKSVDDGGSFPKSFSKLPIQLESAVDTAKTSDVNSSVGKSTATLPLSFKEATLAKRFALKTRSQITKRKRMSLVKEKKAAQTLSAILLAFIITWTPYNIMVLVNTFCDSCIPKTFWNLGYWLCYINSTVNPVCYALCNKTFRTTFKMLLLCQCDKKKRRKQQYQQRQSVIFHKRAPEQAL

M4 (h) = M4 (h) (Homo sapiens, UniProt P08173); assay: M4 (h) (antagonist radioligand), Eurofins assay 96
Chain of M4 (h) (P08173 whole entry): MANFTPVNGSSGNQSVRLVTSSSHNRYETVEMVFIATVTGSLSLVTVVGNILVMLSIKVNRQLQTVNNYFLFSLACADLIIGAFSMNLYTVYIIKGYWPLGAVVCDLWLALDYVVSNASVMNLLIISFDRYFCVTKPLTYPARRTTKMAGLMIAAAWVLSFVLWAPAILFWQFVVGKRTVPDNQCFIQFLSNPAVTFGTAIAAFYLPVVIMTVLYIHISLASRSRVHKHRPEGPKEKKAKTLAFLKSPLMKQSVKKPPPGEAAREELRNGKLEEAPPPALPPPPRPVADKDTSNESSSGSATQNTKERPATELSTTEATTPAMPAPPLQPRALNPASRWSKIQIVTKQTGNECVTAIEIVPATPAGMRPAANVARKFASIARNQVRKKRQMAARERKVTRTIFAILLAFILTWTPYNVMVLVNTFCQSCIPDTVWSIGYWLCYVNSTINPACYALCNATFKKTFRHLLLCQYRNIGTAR

M5 (h) = molecular target: T3, M5 (h) (Homo sapiens, UniProt P08912); assay: M5 (h) (antagonist radioligand), Eurofins assay 97
T3 sequence (P08912 1-532): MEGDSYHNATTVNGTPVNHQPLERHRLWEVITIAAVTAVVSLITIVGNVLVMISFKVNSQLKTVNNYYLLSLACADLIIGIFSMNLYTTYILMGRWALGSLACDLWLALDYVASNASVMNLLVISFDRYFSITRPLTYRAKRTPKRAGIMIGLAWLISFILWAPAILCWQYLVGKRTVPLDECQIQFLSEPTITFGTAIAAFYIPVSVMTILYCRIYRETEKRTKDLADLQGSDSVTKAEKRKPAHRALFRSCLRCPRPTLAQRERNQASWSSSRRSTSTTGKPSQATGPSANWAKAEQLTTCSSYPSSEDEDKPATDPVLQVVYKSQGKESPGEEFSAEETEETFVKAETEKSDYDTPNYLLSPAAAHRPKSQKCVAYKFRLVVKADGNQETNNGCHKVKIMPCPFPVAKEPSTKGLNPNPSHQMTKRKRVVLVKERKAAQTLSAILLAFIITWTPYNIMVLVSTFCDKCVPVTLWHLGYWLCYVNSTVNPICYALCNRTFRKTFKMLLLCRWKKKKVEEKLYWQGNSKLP

5-HT1B (h) = 5-HT1B (h) (Homo sapiens, UniProt P28222); assay: Eurofins panel: 5-HT1B (h) (antagonist radioligand); details: 1.0E-05 M
Chain of 5-HT1B (h) (P28222 whole entry): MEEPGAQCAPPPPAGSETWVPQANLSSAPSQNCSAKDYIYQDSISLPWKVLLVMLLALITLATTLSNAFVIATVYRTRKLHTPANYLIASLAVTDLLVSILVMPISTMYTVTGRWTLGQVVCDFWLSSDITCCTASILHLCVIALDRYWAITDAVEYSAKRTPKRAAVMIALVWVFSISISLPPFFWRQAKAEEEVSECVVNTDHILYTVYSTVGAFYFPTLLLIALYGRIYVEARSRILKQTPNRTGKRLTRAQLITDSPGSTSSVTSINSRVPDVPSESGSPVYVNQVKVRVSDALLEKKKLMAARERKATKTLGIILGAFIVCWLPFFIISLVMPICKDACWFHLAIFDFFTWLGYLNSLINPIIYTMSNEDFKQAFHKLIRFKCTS

5-HT4e (h) = 5-HT4e (h) (Homo sapiens, UniProt Q13639); assay: Eurofins panel: 5-HT4e (h) (antagonist radioligand); details: 1.0E-05 M; 5-HT4e (h) (antagonist radioligand)
BZDp (TSPO) (h) = BZDp (TSPO) (h) (Homo sapiens, UniProt P30536); assay: Eurofins panel: BZDp (TSPO) (h) (antagonist radioligand); details: 1.0E-05 M; BZDp (TSPO) (h) (antagonist radioligand)
Chain of BZDp (TSPO) (h) (P30536 whole entry): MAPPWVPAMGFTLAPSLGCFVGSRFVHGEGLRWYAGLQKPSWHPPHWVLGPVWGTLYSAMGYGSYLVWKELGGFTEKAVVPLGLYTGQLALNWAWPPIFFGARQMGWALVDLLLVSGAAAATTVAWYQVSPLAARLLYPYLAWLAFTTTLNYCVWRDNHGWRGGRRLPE

dopamine transporter (h) = dopamine transporter (h) (Homo sapiens, UniProt Q01959); assay: dopamine transporter (h) (antagonist radioligand), Eurofins assay 52
[3] = molecular target: MAO-A, human, monoamine oxydase A (Homo sapiens, UniProt P21397); assay: MAO-A, human, monoamine oxydase A, MAO, Enzymatic Assay, Cerep, assay 5108

## Fc1nc(N2CCOCC2)ccc1-c1cc2ccccc2[nH]1 [Compound 75, 4-(6-Fluoro-5-(1H-indol-2-yl)pyridin-2-yl)morpholine]
Tyrosine hydroxylase
  % Inhibition, Enzymatic activity: -8.91E+00%
AMPA
  % Inhibition, Specific binding: 4.317%
[1]
  % Inhibition, Specific binding: -2.08E+01%
Cathepsin L (h)
  % Inhibition, Enzymatic activity: 15.4729%
5-HT7 (h)
  % Inhibition, Specific binding: -1.16E+00%
A1 (h)
  % Inhibition, Specific binding: -7.64E+00%
A2A (h)
  % Inhibition, Specific binding: 6.474%
alpha1B (h)
  % Inhibition, Specific binding: -4.91E+00%
TNF-alpha (h)
  % Inhibition, Specific binding: 0.1083%
alpha2A (h)
  % Inhibition, Specific binding: -8.25E+00%
Y1 (h)
  % Inhibition, Specific binding: -2.40E+01%
[2]
  % Inhibition, Enzymatic activity: -2.68E+01%
CYP1A2
  inhibition at 10 µM: -10.4%
CYP2D6
  inhibition at 10 µM: 13.6%
CYP3A
  inhibition at 10 µM: -2.45%
CCK1 (CCKA) (h)
  inhibition at 10 µM: -78.7%
CGRP (h)
  inhibition at 10 µM: -5.83%
D1 (h)
  inhibition at 10 µM: -11.8%
H1 (h)
  inhibition at 10 µM: -3.1%
IRK (h) (InsR)
  inhibition at 10 µM: -5.12%
M2 (h)
  inhibition at 10 µM: -12.8%
M3 (h)
  inhibition at 10 µM: -12.5%
M4 (h)
  inhibition at 10 µM: -20.6%
M5 (h)
  inhibition at 10 µM: 1.64%
5-HT1B (h)
  % Inhibition, Specific binding: -1.91E+01%
5-HT4e (h)
  % Inhibition, Specific binding: 10.412%
BZDp (TSPO) (h)
  % Inhibition, Specific binding: 21.7657%
Dopamine transporter (h)
  inhibition at 10 µM: 17.2%
[3]
  inhibition at 10 µM: 3.62%
